ChEMBL document CHEMBL1140573, “Potent achiral agonists of the ghrelin (growth hormone secretagogue) receptor. Part I: Lead identification” (Bioorg Med Chem Lett, 2007)
pEC50, pKi: −log10 of the molar value. In brackets after ≈: the same amount, converted by molar mass. Activity calls are given as the source filed them. No cut-off for these calls is given here.

How the values were obtained:
[1] = target: T1, Growth hormone secretagogue receptor type 1 (Homo sapiens, UniProt Q92847); test: Intrinsic activity at GSHR relative to human ghrelin; format: functional
T1 sequence (Q92847 whole entry): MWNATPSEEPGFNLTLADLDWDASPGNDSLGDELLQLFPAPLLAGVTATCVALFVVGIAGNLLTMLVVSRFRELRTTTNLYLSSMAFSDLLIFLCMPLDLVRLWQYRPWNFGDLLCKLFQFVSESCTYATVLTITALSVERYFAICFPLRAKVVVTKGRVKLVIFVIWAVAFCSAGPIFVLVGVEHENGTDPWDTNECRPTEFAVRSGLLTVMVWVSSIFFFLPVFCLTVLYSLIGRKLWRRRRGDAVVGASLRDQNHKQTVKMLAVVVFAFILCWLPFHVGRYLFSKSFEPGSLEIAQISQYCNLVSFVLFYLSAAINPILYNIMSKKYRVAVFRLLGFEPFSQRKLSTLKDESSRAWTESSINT

[2] = target: T1, Growth hormone secretagogue receptor type 1; test: Agonist activity at GSHR by FLIPR assay; format: functional
Liver microsomes [3] = test: Metabolic stability in rat liver microsomes; format: ADME, Microsome
[4] = Cmax in rat at 1 mg/kg, iv; format: ADME, organism-based; parameters: dose 1 mg/kg, route intravenous; conditions: in vivo
[5] = target: Motilin receptor (Homo sapiens) (UniProt O43193); test: Activity at motilin GPR38 receptor
Motilin receptor (Homo sapiens), sequence (O43193 whole entry): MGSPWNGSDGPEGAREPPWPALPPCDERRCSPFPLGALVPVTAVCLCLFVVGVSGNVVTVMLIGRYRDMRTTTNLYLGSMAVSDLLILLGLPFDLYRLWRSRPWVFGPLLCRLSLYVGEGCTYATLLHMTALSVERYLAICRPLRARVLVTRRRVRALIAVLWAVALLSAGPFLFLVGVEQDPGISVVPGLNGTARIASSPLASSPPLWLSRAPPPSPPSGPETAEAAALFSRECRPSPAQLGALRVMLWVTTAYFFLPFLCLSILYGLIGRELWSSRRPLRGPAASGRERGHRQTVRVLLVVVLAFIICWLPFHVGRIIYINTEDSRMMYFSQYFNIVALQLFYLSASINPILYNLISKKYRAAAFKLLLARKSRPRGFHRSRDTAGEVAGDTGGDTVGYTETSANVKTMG

[6] = Volume of distribution in rat at 1 mg/kg, iv; format: ADME, organism-based; parameters: dose 1 mg/kg, route intravenous; conditions: in vivo, read-out: Vdss
[7] = Distribution coefficient, log D at pH 7.4; format: physicochemical; conditions: octanol/water
Rattus norvegicus = test: Increase in gastric emptying in sc dosed rat; format: functional; conditions: Stomach
[8] = Clearance in rat blood at 1 mg/kg, iv; format: ADME, organism-based; parameters: dose 1 mg/kg, route intravenous; conditions: in vivo
[9] = Half life in rat at 1 mg/kg, iv; format: ADME, organism-based; parameters: dose 1 mg/kg, route intravenous; conditions: in vivo
[10] = Aqueous solubility at pH 7.4; format: physicochemical
Liver microsomes [11] = test: Metabolic stability in human liver microsomes; format: ADME, Microsome
[12] = target: 5-hydroxytryptamine receptor 1B (Homo sapiens, UniProt P28222); test: Binding affinity at 5HT1B receptor
5-hydroxytryptamine receptor 1B, sequence (P28222 whole entry): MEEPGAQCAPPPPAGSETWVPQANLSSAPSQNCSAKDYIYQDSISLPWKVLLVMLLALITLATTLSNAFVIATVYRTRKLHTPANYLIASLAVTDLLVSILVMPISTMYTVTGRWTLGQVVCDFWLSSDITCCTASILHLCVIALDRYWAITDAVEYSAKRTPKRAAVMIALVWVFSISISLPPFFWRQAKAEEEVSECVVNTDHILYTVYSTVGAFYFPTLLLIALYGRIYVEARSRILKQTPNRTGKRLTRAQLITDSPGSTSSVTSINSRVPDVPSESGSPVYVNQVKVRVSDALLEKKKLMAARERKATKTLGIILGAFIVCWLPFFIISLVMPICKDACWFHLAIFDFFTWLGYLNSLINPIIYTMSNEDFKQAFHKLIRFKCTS

SMILES	Intrinsic activity [1]	pEC50 [2]	also measured
COc1cc2c(cc1N1C[C@@H](C)N[C@@H](C)C1)N(S(=O)(=O)c1ccc(-c3ccon3)s1)CC2	0.9	8.60	–
COc1cc2c(cc1N1C[C@@H](C)N[C@@H](C)C1)N(S(=O)(=O)c1ccc(-c3ccccn3)s1)CC2	0.9	9.80	Stability (Liver microsomes [3]): 2.6 mL/min/g; Cmax [4]: 250 nM; Activity [5]: inactive; Vd [6]: 8.8 L/kg; logD [7]: 1.8; ED50 (Rattus norvegicus): 0.1 mg/kg; Clearance blood [8]: 64 mL/min/kg; half-life [9]: 2.3 h; solubility [10]: 168 µg/mL (≈ 347 µM); Stability (Liver microsomes [11]): 4.5 mL/min/g
COc1cc2c(cc1N1CCN[C@H](C)C1)N(S(=O)(=O)c1ccc(-c3ccccn3)s1)CC2	1	8.40	–
COc1cc2c(cc1N1C[C@@H](C)NC(C)(C)C1)N(S(=O)(=O)c1ccc(-c3ccccn3)s1)CC2	0.8	8.00	–
COc1cc2c(cc1N1C[C@H](C)NC(C)(C)C1)N(S(=O)(=O)c1ccc(-c3ccccn3)s1)CC2	1	9.10	–
COc1cc2c(cc1N1C[C@@H](C)N[C@@H](C)C1)N(S(=O)(=O)c1cccc(-c3ccccn3)c1)CC2	0.9	7.70	–
COc1cc2c(cc1N1CCNC(C)(C)C1)N(S(=O)(=O)c1ccc(-c3ccccn3)s1)CC2	0.9	7.80	–
COc1cc2c(cc1N1C[C@@H](C)N[C@@H](C)C1)N(S(=O)(=O)Cc1cccc(I)c1)CC2	0.8	7.50	–
COc1cc2c(cc1N1C[C@@H](C)N(C)[C@@H](C)C1)N(S(=O)(=O)c1ccc3ccccc3c1)CC2	0.8	7.40	–
COc1cc2c(cc1N1C[C@@H](C)N[C@@H](C)C1)N(S(=O)(=O)c1ccc3ccccc3c1)CC2	1	9.30	–
CCOc1ccc(CC(=O)N2CCc3cc(OC)c(N4C[C@@H](C)N(C)[C@@H](C)C4)cc32)cc1Cl	0.7	6.80	pKi [12]: 7.90
COc1cc2c(cc1N1C[C@@H](C)N(C)[C@@H](C)C1)N(S(=O)(=O)c1cccc(Br)c1)CC2	0.7	6.90	pKi [12]: 5.70
COc1cc2c(cc1N1C[C@@H](C)N[C@@H](C)C1)N(S(=O)(=O)CCc1ccccc1Cl)CC2	0.9	8.30	–
COc1cc2c(cc1N1CCNCC1)N(S(=O)(=O)c1ccc(-c3ccccn3)s1)CC2	0.8	7.20	–
COc1cc2c(cc1N1CCN[C@@H](C)C1)N(S(=O)(=O)c1ccc(-c3ccccn3)s1)CC2	1	8.50	–
COc1cc2c(cc1N1C[C@@H](C)N[C@@H](C)C1)N(S(=O)(=O)c1ccc(-c3ccccn3)cc1)CC2	1.1	9.70	–
